In patent US8222404B2, “[1,2,4]Thiadiazin-3-yl acetic acid compound and methods of making the acetic acid compound” (Anadys Pharmaceuticals, Inc., priority 2008, dated 2012) one finds EC50 data, which are given here for 19 compounds.

SMILES strings stand for the structures.

As a reminder, the EC50 is the concentration needed to bring the measured effect to its halfway point. High values mean a need for much substance, low ones an effect from little substance.

The first experiment has as its system HCV Huh-luc/neo-ET replicon cells. The experiment can be described thus: Luciferase-Based HCV Replicon Assay (EC50 (1b)). It is filed as cell-based. The conditions noted are these: 72 hours exposure, luciferase activity. In a few lines: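 Replicon cells seeded, then exposed 24 h later to a compound concentration series in triplicate for 72 h. Luciferase luminescence read; % inhibition vs no-compound control, with 100 nM BILN-2061 as background, used to derive EC50 (1b).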
(Replicon systems follow genome replication, usually without infectious particles.)
As for `CC(C)(C)CCN1C(=O)C(C2=NS(=O)(=O)c3c(CNS(C)(=O)=O)csc3N2)=C(O)C2C3CCC(C4CC43)C21` (racemic) [Example 25, (rac-di-exo)-N-{3-[3-(3,3-Dimethyl-butyl)-6-hydroxy-4-oxo-3-aza-tetracyclo[6.3.2.0^2,7.0^9,11]tridec-5-en-5-yl]-1,1-dioxo-1,4-dihydro-1λ^6-thieno[2,3-e][1,2,4]thiadiazin-7-ylmethyl}-methanesulfonamide], the EC50 was not above 5 nM.

The same experiment, now with this note: Hepatitis C virus, 72 hours exposure, luciferase activity.
`COc1ccc(CN2C(=O)C(C3=NS(=O)(=O)c4c(CNS(C)(=O)=O)csc4N3)=C(O)[C@@H]3CCC[C@@H]32)c(OC)c1` [Example 77, (4aR,7aS)-N-{3-[1-(2,4-Dimethoxy-benzyl)-4-hydroxy-2-oxo-2,4a,5,6,7,7a-hexahydro-1H-[1]pyrindin-3-yl]-1,1-dioxo-1,4-dihydro-1λ^6-thieno[2,3-e][1,2,4]thiadiazin-7-ylmethyl}-methanesulfonamide] gave a concentration giving a half-maximal response (EC50) of more than 1000 nM.

For the compound `CC(C)CC1CC(O)=C(C2=NS(=O)(=O)c3c(CNS(C)(=O)=O)csc3N2)C(=O)N1Cc1ccc(F)cc1` (racemic) [Example 7, rac-N-{3-[1-(4-Fluoro-benzyl)-4-hydroxy-6-isobutyl-2-oxo-1,2,5,6-tetrahydro-pyridin-3-yl]-1,1-dioxo-1,4-dihydro-1λ^6-thieno[2,3-e][1,2,4]thiadiazin-7-ylmethyl}-methanesulfonamide], the half-maximal effective concentration (EC50) was 100 to 1000 nM.

For `CS(=O)(=O)NCc1csc2c1S(=O)(=O)N=C(C1=C(O)C3CCCCC3N(Cc3ccc(F)cc3)C1=O)N2` (racemic) [Example 116, (rac-cis)-N-{3-[1-(4-Fluoro-benzyl)-4-hydroxy-2-oxo-1,2,4a,5,6,7,8,8a-octahydro-quinolin-3-yl]-1,1-dioxo-1,4-dihydro-1λ^6-thieno[2,3-e][1,2,4]thiadiazin-7-ylmethyl}-methanesulfonamide], the EC50 fell in the range of 20 to 100 nM.

Compound `CS(=O)(=O)NCc1csc2c1S(=O)(=O)N=C(C1=C(O)C3(CC3)CN(Cc3ccc(F)cc3)C1=O)N2` [Example 11, N-{3-[5-(4-Fluoro-benzyl)-8-hydroxy-6-oxo-5-aza-spiro[2.5]oct-7-en-7-yl]-1,1-dioxo-1,4-dihydro-1λ^6-thieno[2,3-e][1,2,4]thiadiazin-7-ylmethyl}-methanesulfonamide] returned a half-maximal effective concentration (EC50) of more than 1000 nM.

Compound `CS(=O)(=O)NCc1csc2c1S(=O)(=O)N=C(C1=C(O)[C@@H]3[C@@H]4CC[C@@H](C4)[C@@H]3N(CC3CCCCC3)C1=O)N2` [Example 102, N-[3-((1S,2S,7R,8R)-3-Cyclohexylmethyl-6-hydroxy-4-oxo-3-aza-tricyclo[6.2.1.0^2,7]undec-5-en-5-yl)-1,1-dioxo-1,4-dihydro-1λ^6-thieno[2,3-e][1,2,4]thiadiazin-7-ylmethyl]-methanesulfonamide] came in with an EC50 of 20 to 100 nM.

`CS(=O)(=O)NCc1csc2c1S(=O)(=O)N=C(C1=C(O)[C@@H]3[C@@H]4CC[C@@H](C4)[C@@H]3N(Cc3ccccc3)C1=O)N2` [Example 39, N-[3-((1S,2S,7R,8R)-3-Benzyl-6-hydroxy-4-oxo-3-aza-tricyclo[6.2.1.0^2,7]undec-5-en-5-yl)-1,1-dioxo-1,4-dihydro-1λ^6-thieno[2,3-e][1,2,4]thiadiazin-7-ylmethyl]-methanesulfonamide] showed an EC50 of 5 to 20 nM.

For `CC(=O)NCc1csc2c1S(=O)(=O)N=C(C1=C(O)[C@@H]3[C@H]4CC[C@H](C4)[C@@H]3N(Cc3ccc(F)cc3)C1=O)N2` [Example 35, N-{3-[(1R,2S,7R,8S)-3-(4-Fluoro-benzyl)-6-hydroxy-4-oxo-3-aza-tricyclo[6.2.1.0^2,7]undec-5-en-5-yl]-1,1-dioxo-1,4-dihydro-1λ^6-thieno[2,3-e][1,2,4]thiadiazin-7-ylmethyl}-acetamide], the EC50 fell in the range of 5 to 20 nM.

Take `CC(C)CCC1(C)CN(C2CC2)C(=O)C(C2=NS(=O)(=O)c3c(CNS(C)(=O)=O)csc3N2)=C1O` (racemic) [Example 19, rac-N-{3-[1-Cyclopropyl-4-hydroxy-5-methyl-5-(3-methyl-butyl)-2-oxo-1,2,5,6-tetrahydro-pyridin-3-yl]-1,1-dioxo-1,4-dihydro-1λ^6-thieno[2,3-e][1,2,4]thiadiazin-7-ylmethyl}-methanesulfonamide]: the EC50 lay in the range of 100 to 1000 nM.

In the case of `CCC1CN(Cc2ccc(F)cc2)C(=O)C(C2=NS(=O)(=O)c3c(CNS(C)(=O)=O)csc3N2)=C1O` (racemic) [Example 18, rac-N-{3-[5-Ethyl-1-(4-fluoro-benzyl)-4-hydroxy-2-oxo-1,2,5,6-tetrahydro-pyridin-3-yl]-1,1-dioxo-1,4-dihydro-1λ^6-thieno[2,3-e][1,2,4]thiadiazin-7-ylmethyl}-methanesulfonamide], the EC50 was in the range of 100 to 1000 nM.

On to `CC(C)CCC1(C)CN(C2CCC2)C(=O)C(C2=NS(=O)(=O)c3c(CNS(C)(=O)=O)csc3N2)=C1O` (racemic) [Example 20, rac-N-{3-[1-Cyclobutyl-4-hydroxy-5-methyl-5-(3-methyl-butyl)-2-oxo-1,2,5,6-tetrahydro-pyridin-3-yl]-1,1-dioxo-1,4-dihydro-1λ^6-thieno[2,3-e][1,2,4]thiadiazin-7-ylmethyl {-methanesulfonamide], for which the EC50 fell in the range of 100 to 1000 nM.

Turning to `Cc1cc(CN2C(=O)C(C3=NS(=O)(=O)c4c(CNS(C)(=O)=O)csc4N3)=C(O)[C@@H]3CCC[C@@H]32)ccc1F` [Example 126, (4aR,7aS)-N-{3-[1-(4-Fluoro-3-methyl-benzyl)-4-hydroxy-2-oxo-2,4a,5,6,7,7a-hexahydro-1H-[1]pyrindin-3-yl]-1,1-dioxo-1,4-dihydro-1λ^6-thieno[2,3-e][1,2,4]thiadiazin-7-ylmethyl}-methanesulfonamide], the EC50 fell in the range of 20 to 100 nM.

Compound `CS(=O)(=O)NCc1csc2c1S(=O)(=O)N=C(C1=C(O)C3C4CCCC(CC4)C3N(Cc3ccc(F)cc3)C1=O)N2` (racemic) [Example 142, (rac-di-exo)-N-{3-[3-(4-Fluoro-benzyl)-6-hydroxy-4-oxo-3-aza-tricyclo[6.3.2.0^2,7]tridec-5-en-5-yl]-1,1-dioxo-1,4-dihydro-1λ^6-thieno[2,3-e][1,2,4]thiadiazin-7-ylmethyl}-methanesulfonamide] displayed an EC50 of 20 to 100 nM.

`CC(C)CCN1C(=O)C(C2=NS(=O)(=O)c3c(CNS(C)(=O)=O)csc3N2)=C(O)C2C3C=CC(C3)C21` (racemic) [Example 66, (rac-di-exo)-N-{3-[6-Hydroxy-3-(3-methyl-butyl)-4-oxo-3-aza-tricyclo[6.2.1.0^2,7]undeca-5,9-dien-5-yl]-1,1-dioxo-1,4-dihydro-1λ^6-thieno[2,3-e][1,2,4]thiadiazin-7-ylmethyl}-methanesulfonamide] showed an EC50 of 5 to 20 nM.

The compound `CS(=O)(=O)NCc1csc2c1S(=O)(=O)N=C(C1=C(O)C3CCCCCC3N(Cc3cc(F)c(F)c(F)c3)C1=O)N2` (racemic) [Example 140, (rac-cis)-N-{3-[4-Hydroxy-2-oxo-1-(3,4,5-trifluoro-benzyl)-2,4a,5,6,7,8,9,9a-octahydro-1H-cyclohepta[b]pyridin-3-yl]-1,1-dioxo-1,4-dihydro-1λ^6-thieno[2,3-e][1,2,4]thiadiazin-7-ylmethyl}-methanesulfonamide] returned a 50% effective concentration (EC50) of more than 1000 nM.

In turn, `O=C1C(C2=NS(=O)(=O)c3c(CNS(=O)(=O)C4CC4)csc3N2)=C(O)[C@@H]2[C@H]3CC[C@H](C3)[C@@H]2N1Cc1ccc(F)cc1` [Example 33, Cyclopropanesulfonic acid {3-[(1R,2S,7R,8S)-3-(4-fluoro-benzyl)-6-hydroxy-4-oxo-3-aza-tricyclo[6.2.1.0^2,7]undec-5-en-5-yl]-1,1-dioxo-1,4-dihydro-1λ^6-thieno[2,3-e][1,2,4]thiadiazin-7-ylmethyl}-amide] displayed an EC50 of 5 to 20 nM.

Take `CC(C)CC1CN(Cc2ccc(F)cc2)C(=O)C(C2=NS(=O)(=O)c3c(CNS(C)(=O)=O)csc3N2)=C1O` (racemic) [Example 17, rac-N-{3-[1-(4-Fluoro-benzyl)-4-hydroxy-5-isobutyl-2-oxo-1,2,5,6-tetrahydro-pyridin-3-yl]-1,1-dioxo-1,4-dihydro-1λ^6-thieno[2,3-e][1,2,4]thiadiazin-7-ylmethyl}-methanesulfonamide]: the EC50 fell in the range of 100 to 1000 nM.

Regarding `CC(C)(C)CCN1C(=O)C(C2=NS(=O)(=O)c3c(CNS(C)(=O)=O)csc3N2)=C(O)C2CCCCC21` (racemic) [Example 133, (rac-cis)-N-{3-[1-(3,3-Dimethyl-butyl)-4-hydroxy-2-oxo-1,2,4a,5,6,7,8,8a-octahydro-quinolin-3-yl]-1,1-dioxo-1,4-dihydro-1λ^6-thieno[2,3-e][1,2,4]thiadiazin-7-ylmethyl}-methanesulfonamide], the EC50 lay within 20 to 100 nM.

Regarding `CS(=O)(=O)NCc1csc2c1S(=O)(=O)N=C(C1=C(O)[C@@H]3[C@H]4CC[C@H](C4)[C@@H]3N(CCC3CC3)C1=O)N2` [Example 106, N-{3-[(1R,2S,7R,8S)-3-(2-Cyclopropyl-ethyl)-6-hydroxy-4-oxo-3-aza-tricyclo[6.2.1.0^2,7]undec-5-en-5-yl]-1,1-dioxo-1,4-dihydro-1λ^6-thieno[2,3-e][1,2,4]thiadiazin-7-ylmethyl}-methanesulfonamide], the EC50 is 5 to 20 nM.
